Assay results published in patent US20100113334A1, “METHODS FOR REDUCING OR PREVENTING TRANSMISSION OF NOSOCOMIAL PATHOGENS IN A HEALTH CARE FACILITY” (priority 2003, published 2010).
Entries after “also recorded” stand apart in the source; their conditions may differ.

Experiments:
[1] = tested on: S. aureus (MRSA); details: 100 strains; cited from earlier work
[2] = In vitro interaction with human gastro-intestinal contents
Description: The in vitro interaction of ramoplanin with human gastro-intestinal contents was studied.

[3] = tested on: VRE; assay: Effect of prior ramoplanin treatment on establishment of VRE colonization (Example 4); format: in vivo, mice; details: 10^7 CFU VRE 4 hours or 1, 2, 4 days after 7 days of 100 μg/ml; P>0.05 vs controls
Description: The density of VRE in stool was monitored before and 1 and 4 days after inoculation. Four mice were included in each treatment group.

[4] = tested on: clinical isolate VanA strain of E. faecium (VRE); assay: VRE suppression in a mouse model (Example 1); format: in vivo, mice
Description: Mice were colonized with a clinical isolate VanA strain of E. faecium (VRE) isolated from a septicemic patient. A single inoculation of 5×10^8 cfu VRE by oral gavage (Day 0) was followed by treatment with vancomycin in the drinking water to maintain colonization. On day 22, each group received the same vancomycin-containing drinking water. […] The control group consisted of five mice, while the ramoplanin group consisted of four mice.

[5] = tested on: S. pneumoniae; details: 20 strains; cited from earlier work
[6] = tested on: S. aureus (MSSA); details: 140 strains; cited from earlier work
[7] = tested on: VRE (VRE faecium, VRE faecalis); assay: In vitro activity (MIC90), internal Phase II isolates; format: cell-based, vancomycin-resistant Enterococcus; details: 235 strains, internal Phase II data
[8] = tested on: VRE; assay: Prevention of cross-transmission of VRE among mice in communal cages (Example 5); format: in vivo
Protocol: One set of experiments was performed to evaluate the ability of ramoplanin to prevent cross-transmission and overgrowth of VRE among mice in communal cages. High-density VRE stool colonization (˜7 log10 CFU/g) was established in 2 mice as described above. […] All mice were treated with subcutaneous clindamycin (1.4 mg) once daily for 5 days. After 9 days, all mice were separated into individual cages and supplied with regular drinking water.

[9] = tested on: Gram-negative bacteria (enteric bacteria and Bacteroides spp.); assay: Activity on stool microflora of healthy volunteers (Example 7.1); format: in vivo, human; details: 10 days BID
Protocol: (§1) The predetermined dose was reconstituted in 5 mL water per vial, mixed with 50 mL of sweetened, aromatized solution, and immediately administered orally to the subjects.
(§2) Faecal microbial concentrations (organisms per gram of faecal matter) were determined at the following timepoints: day-4 (pre-treatment), days 4 and 10 (treatment), and days […] and 24 (follow-up). Tolerability and absorption were also investigated.

[10] = tested on: Gram-positive bacteria (staphylococci, streptococci, enterococci); assay: as above; format: in vivo, human
Protocol: as §1, §2

[11] = tested on: yeast; assay: as above; format: in vivo, human; details: 10 days BID
Protocol: as §1, §2

[12] = tested on: Lactobacillus species; assay: Effect on indigenous stool microflora (Example 3), quantitative culture; format: in vivo, mice
Protocol: Female CF1 mice (Harlan Sprague-Dawley, Indianapolis) weighing 25-30 g were used in these experiments. In order to minimize the risk of cross-contamination, mice were housed in individual cages with plastic filter tops. […] Quantitative cultures for facultative and aerobic gram-negative bacilli, enterococci, total anaerobes, Bacteroides species, Lactobacillus species, and Clostridium species were performed by plating serially-diluted specimens onto MacConkey agar (Difco Laboratories, Detroit), Enterococcosel agar (Becton Dickinson, Cockeysville, Md.), Brucella agar (Becton Dickinson), Bacteroides bile esculin agar, Rogosa agar, and Egg Yolk agar, respectively. For culture of anaerobes, stool samples were processed inside an anaerobic chamber (Coy Laboratories, Grass Lake, Mich.). Denaturing gradient gel electrophoresis (DGGE) of PCR-amplified bacterial ribosomal RNA genes from stool was performed as described by Donskey et al. (supra).

[13] = tested on: E faecalis; details: 30 strains; cited from earlier work
[14] = tested on: E. faecium C68 (VanB-type clinical VRE isolate); assay: Minimum-inhibitory concentration for VRE C68; format: cell-based
Protocol: Pathogens Studied: E. faecium C68, a previously described VanB-type clinical VRE isolate, was used for the following murine VRE experiments (Donskey et al., J. Microbial. Meth. 1807: 1-8, 2003). […] Klebsiella pneumoniae P62 is a clinical isolate that produces an SHV type extended-spectrum β-lactamase (ESBL). Candida glabrata A239 is a clinical isolate with a fluconazole minimum-inhibitory concentration of 2 μg/mL.

[15] = Storage stability of ramoplanin granules for oral solution; format: physicochemical
Protocol: The contents of the packet can be reconstituted with approximately 15-30 mL of water, and the resulting solution either consumed directly, or further diluted with water, cranberry juice, apple juice, or 7-Up prior to drinking. After consumption, the drug may be followed with subsequent amounts of these beverages or with food (e.g., cracker, bread). […] Alternatively, ramoplanin is available as capsules containing pharmaceutically acceptable excipients that are generally regarded as safe.

[16] = tested on: Bacillus spp.; details: 10 strains; cited from earlier work
[17] = Oral administration to healthy male volunteers: absorption and excretion (Example 7, 7.1); format: in vivo, human
Protocol: Both bioassay and HPLC-based assays to assess the absorption, distribution, metabolism, and excretion were utilized in these studies.
as §1

[18] = Day 22, prior to ramoplanin therapy
[19] = Day 36, 7 days after completion of ramoplanin therapy
[20] = single oral doses up to 1000 mg, multiple 200, 400 or 800 mg BID 10 days, bioassay and HPLC

Ramoplanin
Ramoplanin MIC90 [1]: 0.25 µg/mL | binding to solid components of faeces [2]: bind reversibly | microbiological activity in faeces [2]: microbiologically active in faeces | overgrowth / establishment of VRE stool colonization after prior ramoplanin treatment [3]: did not facilitate the establishment of stool colonization; also recorded: did not develop significant overgrowth of VRE | % Mice with VRE [4, 18]: 100% | Enterococci: VRE [4, 18]: 9.7 log 10 cfu/g faeces | Enterococci: VRE ([4]; Day 29, completion of ramoplanin therapy): <3.1 log 10 cfu/g faeces | % Mice with VRE ([4]; Day 29, completion of ramoplanin therapy (15 mg/kg/day in drinking water, with 25 mg/kg/day vancomycin)): 0% | % Mice with VRE [4, 19]: 100% | Enterococci: VRE [4, 19]: 8.7 log 10 cfu/g faeces | VRE concentration per gram of faeces ([4]; after one week of treatment, all animals): < 3.1 log units | Ramoplanin MIC90 [5]: <0.03 µg/mL | Ramoplanin MIC90 [6]: 0.5 µg/mL | Ramoplanin MIC90 [7]: 0.5 µg/mL | VRE colonization in the colonized mouse added to the communal cage ([8]; 100 μg/ml in drinking water, clindamycin-treated mice): rapidly inhibited | VRE colonization of the other mice during ramoplanin treatment ([8]; 100 μg/ml in drinking water, communal cage): none of the other mice developed detectable levels of colonization | mice with VRE colonization detected after discontinuation of ramoplanin ([8]; within 5 days after transfer to individual cages, 4 of 5 mice): 80% | effect on faecal Gram-negative bacteria [9]: no effect | faecal concentrations of staphylococci, streptococci, and enterococci ([10]; by day 10, all subjects): below the level of detection | effect on faecal Gram-positive bacteria ([10]; first measurement on day 4): marked effect | effect on faecal yeast [11]: no effect | Lactobacillus species in stool ([12]; 3 days after discontinuation (day 10)): returned to pre-treatment levels | Lactobacillus species in stool ([12]; ramoplanin treatment, P<0.001): markedly reduced | Ramoplanin MIC90 [13]: 0.5 µg/mL | minimum-inhibitory concentration [14]: 0.125 µg/mL | stability of 400 mg granulated powder packets ([15]; refrigerated conditions): stable for at least one year | shelf life of reconstituted aqueous solution ([15]; stored at refrigerated conditions): 48 h | Ramoplanin MIC90 [16]: 0.25 µg/mL | absorption from the human gastro-intestinal tract ([17]; 200, 400 or 800 mg twice a day, ten days): very little, if any, is absorbed; also recorded: No absorption | faecal concentration, average ([17]; Day 3, 200 mg group): 827 µg/g | faecal concentration, average ([17]; Day 3, 400 mg group): 1742 µg/g | faecal concentration, average ([17]; Day 3, 800 mg group): 1901 µg/g | faecal concentration, average ([17]; Day 10, 200 mg group): 949 µg/g | faecal concentration, average ([17]; Day 10, 400 mg group): 1417 µg/g | faecal concentration, average ([17]; Day 10, 800 mg group): 2647 µg/g | ramoplanin in urine ([17]; day 1 or 5 and pooled urine up to 72-96 after the last dose): no ramoplanin was detected | ramoplanin in serum ([17]; days 1, 5, 10, 0.5-12 hours after the morning dose, 200, 400 or 800 mg twice a day): not detected | faecal concentrations post-treatment ([17]; four days post-treatment): remained detectable in some subjects | ramoplanin in serum/plasma [17, 20]: not detected | ramoplanin in urine [17, 20]: not detected | cumulative recovery in faeces ([17]; up to Day 4 post-treatment): 25 % of the administered dose
